Experimental data as given in patent US12263248B2, “Compounds and compositions for intracellular delivery of therapeutic agents” (ModernaTX, Inc., priority 2018, dated 2025).

Legend:
[1] = Particle size and polydispersity index of nanoparticle compositions (Zetasizer Nano ZS); format: physicochemical; conditions: Table 1A; for Size (nm): lipid:DSPC:cholesterol:PEG-DMG 50:10:38.5:1.5 mol %
Summary of the method: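 Nanoparticle compositions are diluted in 1×PBS, then size and polydispersity index are read on a Zetasizer Nano ZS instrument.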

[2] = Encapsulation efficiency of RNA (QUANT-IT RIBOGREEN RNA assay); format: physicochemical; conditions: Table 1A
Summary of the method: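 RiboGreen fluorescence (ex ~480, em ~520 nm) compared between intact samples and Triton X-100-lysed samples after 15 min at 37 °C in TE buffer, pH 7.5. Percent free RNA is the blank-corrected intact/disrupted ratio.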

[3] = Apparent (surface) pKa of the LNP formulation (TNS assay); format: physicochemical; conditions: Table 1A
Summary of the method: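 LNP (0.04 mg/mL mRNA) mixed with TNS reagent in 21 buffers spanning about pH 3-12, in triplicate; fluorescence plotted against pH as sigmoidal curve. Apparent pKa taken as […] curve inflection point; validated in 1× PBS and 20 mM Tris w/8% sucrose.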

luciferase (Luc) mRNA [4] = experiment: Luc expression, whole body bioluminescence after intravenous administration to mice; format: in vivo; conditions: for Total Flux 3 hours / Total Flux 6 hours / Total Flux 24 hours: mice, i.v., 0.5 mg/kg, Luc mRNA; for Fold increase in total body Luc Flux relative to MC3 at 6 h: Table 3A; for 6 h Lipid/MC3 Avg. Luc Expression / Fold increase AUC Lipid/MC3 / AUC (h * p/s): Table 3C
Summary of the method: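 Luc mRNA nanoparticle formulations given intravenously to mice (n=6) at 0.5 mg/kg; whole-body bioluminescence imaged at 3, 6 and 24 h. CD-1 mice received IP D-luciferin (200 μL of 15 mg/mL) 15 min before imaging; total flux quantified by region of interest.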

luciferase (Luc) mRNA [5] = experiment: Luc expression in liver, lung, spleen and femur 6 hours after intravenous administration; format: in vivo; conditions: mice, 0.5 mpk; for Total Flux Liver / Total Flux Lung / Total Flux Spleen: intravenous
Summary of the method: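 LNP-formulated mRNA given IV to mice (n=3) at 0.5 mpk; at 6 h, bioluminescence imaged ex vivo 15 min after IP D-luciferin (15 mg/mL, 200 μL), organs imaged within 25 min. Values are total flux by region of interest.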

| SMILES | PDI [1] | Size (nm) [1] | EE (%) [2] | pKa [3] | Total Flux 3 hours (luciferase (Luc) mRNA [4]) | Total Flux 6 hours (luciferase (Luc) mRNA [4]) | Total Flux 24 hours (luciferase (Luc) mRNA [4]) | Total Flux Liver (luciferase (Luc) mRNA [5]) | Total Flux Lung (luciferase (Luc) mRNA [5]) | Total Flux Spleen (luciferase (Luc) mRNA [5]) | Fold increase in total body Luc Flux relative to MC3 at 6 h (luciferase (Luc) mRNA [4]; i.v. administration) | 6 h Lipid/MC3 Avg. Luc Expression (luciferase (Luc) mRNA [4]; i.v. administration) | Fold increase AUC Lipid/MC3 (luciferase (Luc) mRNA [4]; i.v. administration) | AUC (h * p/s) (luciferase (Luc) mRNA [4]; i.v. administration, Luc) | Flux in the spleen (luciferase (Luc) mRNA [5]; i.v., in words) | Lipid/MC3 AUC (luciferase (Luc) mRNA [4]; Table 3D, intravenous) | AUC (p/s * h) (luciferase (Luc) mRNA [4]; Table 3D, intravenous, Luc) | flux measured at 6 h relative to the MC3 formulation (luciferase (Luc) mRNA [4]; i.v. administration, in words) |
| --- | --- | --- | --- | --- | --- | --- | --- | --- | --- | --- | --- | --- | --- | --- | --- | --- | --- | --- |
| CCCCCCCCC(CCC)OC(=O)CCCN(CCO)CCCCCCCC(=O)OC(CCCCCCCC)CCCCCCCC (centres unmarked) [Compound 74, Heptadecan-9-yl 8-((4-(dodecan-4-yloxy)-4-oxobutyl)(2-hydroxyethyl)amino)octanoate] | 0.15 | 65.6 nm | 97% | 6.08 | 3.27E+10 | 2.23E+10 | 2.75E+08 | 1.99E+09 | 6.93E+06 | 2.26E+07 | 1.005 | – | – | – | – | – | – | – |
| CCCCCCCCCOC(=O)CCCCCCCN(CCO)CCCCCCCC(=O)OC1CCC(C2CCCCC2)CC1 (centres unmarked) [Compound 80, [1,1′—Bi(cyclohexan)]-4-yl 8-((2-hydroxyethyl)(8-(nonyloxy)-8-oxooctyl)amino)octanoate] | 0.19 | 118 nm | 90.7% | 7.52 | 2.76E+08 | 3.26E+08 | 1.54E+07 | 1.09E+07 | 8.97E+04 | 4.71E+06 | – | – | – | – | – | – | – | – |
| CCCCCCCC/C=C\CCCCCCCCN(CCO)CCCCCCCC(=O)OC(CCCCCCCC)CCCCCCCC [Compound 31, heptadecan-9-yl (Z)-8-((2-hydroxyethyl)(octadec-9-en-1-yl)amino) octanoate] | 0.15 | 73.9 nm | 95.11% | 6.64 | 4.19E+10 | 5.31E+10 | 1.68E+09 | 5.17E+09 | 7.55E+06 | 9.42E+07 | 1.21 | – | – | – | – | – | – | – |
| CCCCCCCCCOC(=O)CCCCCCCN(CCO)CCCCCCCC(=O)OC1CCC(CCCCC)CC1 (centres unmarked) [Compound 79, Nonyl 8-((2-hydroxyethyl)(8-oxo-8-((4-pentylcyclohexyl)oxy)octyl)amino)octanoate] | 0.18 | 93.7 nm | 89.1% | 7.53 | 3.23E+08 | 5.27E+08 | 3.08E+07 | 3.15E+06 | 6.13E+04 | 6.45E+05 | – | – | – | – | – | – | – | – |
| CCCCCCCCC(CCCCCCCC)OC(=O)CCCCCCCN(CCO)CCCC(=O)OCC1CC1CCCCCC (centres unmarked) [Compound 55, heptadecan-9-yl 8-((4-((2-hexylcyclopropyl)methoxy)-4-oxobutyl)(2-hydroxyethyl)amino)octanoate] | 0.16 | 91.6 nm | 97.03% | 6.44 | 5.07E+10 | 1.68E+10 | 4.06E+08 | 1.92E+09 | 7.02E+06 | 2.63E+07 | 1.52 | – | – | – | – | – | – | higher flux than MC3 formulations |
| CCCCCCCCC(CCCCCCCC)OC(=O)CCCCCCCN(CCO)CCCC(=O)OC1CCC(CCCCC)CC1 (centres unmarked) [Compound 67, Heptadecan-9-yl 8-((2-hydroxyethyl)(4-oxo-4-((4-pentylcyclohexyl)oxy)butyl)amino)octanoate] | 0.13 | 77 nm | 98% | 6.38 | 4.24E+10 | 4.62E+10 | 4.51E+08 | 3.60E+09 | 1.68E+07 | 2.55E+07 | 2.08 | – | – | – | – | – | – | – |
| CCCCCCCCC(CCCCCCCC)OC(=O)CCCCCCCN(CCO)CCCC(=O)OC(CCCCCC)CCCCCCCC (centres unmarked) [Compound 73, Heptadecan-9-yl 8-((2-hydroxyethyl)(4-oxo-4-(pentadecan-7-yloxy)butyl)amino)octanoate] | 0.13 | 59.2 nm | 95.7% | 5.95 | 8.10E+09 | 1.07E+10 | 1.27E+08 | 7.93E+08 | 6.17E+06 | 9.45E+06 | 0.48 | – | – | – | – | – | – | – |
| CCCCCCCCCOC(=O)CCCCCCCN(CCCCCCCC(=O)OC(CCCCCCCC)CCCCCCCC)CCN1CCN(C)CC1 [Compound 101, Heptadecan-9-yl 8-((2-(4-methylpiperazin-1-yl)ethyl)(8-(nonyloxy)-8-oxooctyl)amino)octanoate] | 0.230 | 91.7 nm | 98.96% | 7.27 | 1.89E+08 | 1.41E+08 | 3.64E+06 | 1.27E+07 | 1.77E+05 | 5.60E+06 | – | 0.019 | 0.022 | 1.8E+09 h * p/s | – | – | – | – |

Continued, in another order:

| PDI [1] | Size (nm) [1] | EE (%) [2] | pKa [3] | SMILES | Total Flux 3 hours (luciferase (Luc) mRNA [4]) | Total Flux 6 hours (luciferase (Luc) mRNA [4]) | Total Flux 24 hours (luciferase (Luc) mRNA [4]) | Total Flux Liver (luciferase (Luc) mRNA [5]) | Total Flux Lung (luciferase (Luc) mRNA [5]) | Total Flux Spleen (luciferase (Luc) mRNA [5]) | Fold increase in total body Luc Flux relative to MC3 at 6 h (luciferase (Luc) mRNA [4]; i.v. administration) | 6 h Lipid/MC3 Avg. Luc Expression (luciferase (Luc) mRNA [4]; i.v. administration) | Fold increase AUC Lipid/MC3 (luciferase (Luc) mRNA [4]; i.v. administration) | AUC (h * p/s) (luciferase (Luc) mRNA [4]; i.v. administration, Luc) | Flux in the spleen (luciferase (Luc) mRNA [5]; i.v., in words) | Lipid/MC3 AUC (luciferase (Luc) mRNA [4]; Table 3D, intravenous) | AUC (p/s * h) (luciferase (Luc) mRNA [4]; Table 3D, intravenous, Luc) | flux measured at 6 h relative to the MC3 formulation (luciferase (Luc) mRNA [4]; i.v. administration, in words) |
| --- | --- | --- | --- | --- | --- | --- | --- | --- | --- | --- | --- | --- | --- | --- | --- | --- | --- | --- |
| 0.08 | 72.1 nm | 98% | 6.14 | CCCCCCCCCOC(=O)CCCCCCCN(CCO)CCCCCCCC(=O)Oc1ccc(CCCCC)c(CCCCC)c1 [Compound 118, 3,4-Dipentylphenyl 8-((2-hydroxyethyl)(8-(nonyloxy)-8-oxooctyl)amino)octanoate] | 1.46E+09 | 1.16E+09 | 4.37E+07 | 1.72E+08 | 1.98E+06 | 2.49E+07 | – | – | – | – | – | – | – | – |
| 0.160 | 78.8 nm | 90.77% | 6.13 | CCCCCCCCCOC(=O)CCCCCCCN(CCCCCCCC(=O)OC(CCCCCCCC)CCCCCCCC)CCN1CCOCC1 [Compound 103, Heptadecan-9-yl 8-((2-morpholinoethyl)(8-(nonyloxy)-8-oxooctyl)amino)octanoate] | 2.68E+09 | 1.82E+09 | 9.45E+07 | 8.48E+07 | 2.06E+05 | 2.65E+06 | – | 0.250 | 0.291 | 2.4E+10 h * p/s | – | – | – | – |
| 0.13 | 107.1 nm | 97% | 6.83 | CCCCCCCCC(C)OC(=O)CCCCCCCN(CCO)CCCCCCCC(=O)N(CCCCCCCC)CCCCCCCC (centres unmarked) [Compound 130, Decan-2-yl 8-((8-(dioctylamino)-8-oxooctyl)(2-hydroxyethyl)amino)octanoate] | 6.26E+10 | 8.92E+10 | 1.08E+09 | 8.17E+09 | 5.88E+07 | 1.35E+09 | 4.02 | – | – | – | highest | – | – | – |
| 0.072 | 62.6 nm | 99.29% | 6.465 | CCCCCCCCCOC(=O)CCCCCCCN(CCO)CCCCCCC/C=C\C(CCCCCCCC)CCCCCCCC [Compound 152, Nonyl (Z)-8-((2-hydroxyethyl)(10-octyloctadec-8-en-1-yl)amino)octanoate] | 1.56E+09 | 2.45E+09 | 4.95E+07 | 1.43E+08 | 3.16E+05 | 6.63E+06 | – | – | – | – | – | 0.15 | 2.855E+010 p/s * h | – |
| 0.210 | 97.0 nm | 91.94% | 7.78 | CCCCCCCCC(CCCCCCCC)OC(=O)CCCCCCCN(CCO)CCCCCC(=O)N(C)CCCCCCCC [Compound 146, Heptadecan-9-yl 8-((2-hydroxyethyl)(6-(methyl(octyl)amino)-6-oxohexyl)amino)octanoate] | 9.48E+07 | 8.39E+07 | 2.30E+06 | 7.24E+06 | 3.88E+06 | 5.11E+07 | – | 0.011 | 0.013 | 1.04E+09 h * p/s | – | – | – | – |
